Assay results from paper PMC5740388, “In Vitro Antibacterial Properties of Cefiderocol, a Novel Siderophore Cephalosporin, against Gram-Negative Bacteria” (Antimicrobial Agents and Chemotherapy, 2017).
Read-outs that look alike come from different tables or passages of the source.

Assays:
Format in all cases: binding
Settings in all cases: covalent
[1] = target: T1, PBP4 of K. pneumoniae SR22291 (Klebsiella pneumoniae, UniProt A6TEK1); test: competition with […]benzylpenicillin for PBPs
T1 construct: gene dacB
T1 sequence (A6TEK1 21-477): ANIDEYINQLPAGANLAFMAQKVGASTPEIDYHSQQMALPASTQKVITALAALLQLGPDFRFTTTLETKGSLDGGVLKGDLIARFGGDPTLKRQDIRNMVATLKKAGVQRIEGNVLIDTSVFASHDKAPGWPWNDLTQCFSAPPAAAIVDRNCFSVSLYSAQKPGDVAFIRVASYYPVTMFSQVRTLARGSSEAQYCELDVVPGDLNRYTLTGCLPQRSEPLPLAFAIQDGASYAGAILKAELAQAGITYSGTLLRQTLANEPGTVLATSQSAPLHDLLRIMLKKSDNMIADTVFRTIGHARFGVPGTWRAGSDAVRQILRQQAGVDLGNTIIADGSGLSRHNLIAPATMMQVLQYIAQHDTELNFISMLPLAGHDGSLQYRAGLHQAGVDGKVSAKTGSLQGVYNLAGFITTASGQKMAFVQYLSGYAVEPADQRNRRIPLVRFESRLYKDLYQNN

[2] = target: T2, PBP3 of K. pneumoniae SR22291 (Klebsiella pneumoniae, UniProt A0A0H3GN85); test: competition with […]benzylpenicillin for PBPs
T2 construct: gene ftsI
T2 sequence (A0A0H3GN85 1-588): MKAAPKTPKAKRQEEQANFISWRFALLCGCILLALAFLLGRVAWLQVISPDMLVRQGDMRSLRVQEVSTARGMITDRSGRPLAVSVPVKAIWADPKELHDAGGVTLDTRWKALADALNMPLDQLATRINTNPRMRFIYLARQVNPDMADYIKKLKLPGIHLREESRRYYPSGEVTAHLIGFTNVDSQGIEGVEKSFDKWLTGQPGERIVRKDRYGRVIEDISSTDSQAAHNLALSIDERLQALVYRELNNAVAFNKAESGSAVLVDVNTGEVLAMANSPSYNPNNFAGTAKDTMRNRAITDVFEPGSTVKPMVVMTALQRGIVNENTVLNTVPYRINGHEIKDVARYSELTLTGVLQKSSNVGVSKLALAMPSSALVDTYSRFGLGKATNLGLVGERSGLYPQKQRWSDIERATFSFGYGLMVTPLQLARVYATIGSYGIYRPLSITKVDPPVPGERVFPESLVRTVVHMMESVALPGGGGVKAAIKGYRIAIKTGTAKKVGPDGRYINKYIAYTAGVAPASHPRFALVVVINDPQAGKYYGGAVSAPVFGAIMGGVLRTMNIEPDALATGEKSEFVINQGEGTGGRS

[3] = target: T3, PBP2 of A. baumannii ATCC 17978 (Acinetobacter baumannii, UniProt D0C8Z9); test: competition with Bocillin FL for PBPs
T3 construct: gene mrdA
T3 sequence (D0C8Z9 1-672): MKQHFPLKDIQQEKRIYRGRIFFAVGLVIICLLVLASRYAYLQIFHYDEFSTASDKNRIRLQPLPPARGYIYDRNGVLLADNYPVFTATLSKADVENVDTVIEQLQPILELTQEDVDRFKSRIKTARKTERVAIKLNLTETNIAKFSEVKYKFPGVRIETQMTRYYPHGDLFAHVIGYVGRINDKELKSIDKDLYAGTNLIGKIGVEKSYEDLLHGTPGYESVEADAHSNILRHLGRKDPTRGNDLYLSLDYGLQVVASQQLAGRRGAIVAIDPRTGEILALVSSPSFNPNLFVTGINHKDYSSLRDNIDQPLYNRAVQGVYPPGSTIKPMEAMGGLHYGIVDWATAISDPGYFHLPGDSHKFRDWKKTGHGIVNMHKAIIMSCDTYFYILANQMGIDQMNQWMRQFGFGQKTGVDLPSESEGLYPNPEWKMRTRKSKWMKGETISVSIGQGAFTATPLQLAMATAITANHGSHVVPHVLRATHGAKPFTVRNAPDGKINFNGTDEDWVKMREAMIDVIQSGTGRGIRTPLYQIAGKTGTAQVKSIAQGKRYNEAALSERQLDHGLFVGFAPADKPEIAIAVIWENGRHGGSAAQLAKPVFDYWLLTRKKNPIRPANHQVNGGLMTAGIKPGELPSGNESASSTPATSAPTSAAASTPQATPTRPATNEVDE
From the text: competition with Bocillin FL for PBPs on PBP2 of A. baumannii ATCC 17978

[4] = target: T4, PBP1b of E. coli NIHJ JC-2 (Escherichia coli, UniProt P02919); test: competition with […]benzylpenicillin for PBPs
T4 construct: gene mrcB

[5] = target: T5, PBP1a of E. coli NIHJ JC-2 (Escherichia coli, UniProt P02918); test: competition with […]benzylpenicillin for PBPs
T5 construct: gene mrcA

[6] = target: T6, PBP1b of K. pneumoniae SR22291 (Klebsiella pneumoniae, UniProt A0ACD7TXF1); test: competition with […]benzylpenicillin for PBPs
T6 construct: gene mrcB
T6 sequence (A0ACD7TXF1 1-850): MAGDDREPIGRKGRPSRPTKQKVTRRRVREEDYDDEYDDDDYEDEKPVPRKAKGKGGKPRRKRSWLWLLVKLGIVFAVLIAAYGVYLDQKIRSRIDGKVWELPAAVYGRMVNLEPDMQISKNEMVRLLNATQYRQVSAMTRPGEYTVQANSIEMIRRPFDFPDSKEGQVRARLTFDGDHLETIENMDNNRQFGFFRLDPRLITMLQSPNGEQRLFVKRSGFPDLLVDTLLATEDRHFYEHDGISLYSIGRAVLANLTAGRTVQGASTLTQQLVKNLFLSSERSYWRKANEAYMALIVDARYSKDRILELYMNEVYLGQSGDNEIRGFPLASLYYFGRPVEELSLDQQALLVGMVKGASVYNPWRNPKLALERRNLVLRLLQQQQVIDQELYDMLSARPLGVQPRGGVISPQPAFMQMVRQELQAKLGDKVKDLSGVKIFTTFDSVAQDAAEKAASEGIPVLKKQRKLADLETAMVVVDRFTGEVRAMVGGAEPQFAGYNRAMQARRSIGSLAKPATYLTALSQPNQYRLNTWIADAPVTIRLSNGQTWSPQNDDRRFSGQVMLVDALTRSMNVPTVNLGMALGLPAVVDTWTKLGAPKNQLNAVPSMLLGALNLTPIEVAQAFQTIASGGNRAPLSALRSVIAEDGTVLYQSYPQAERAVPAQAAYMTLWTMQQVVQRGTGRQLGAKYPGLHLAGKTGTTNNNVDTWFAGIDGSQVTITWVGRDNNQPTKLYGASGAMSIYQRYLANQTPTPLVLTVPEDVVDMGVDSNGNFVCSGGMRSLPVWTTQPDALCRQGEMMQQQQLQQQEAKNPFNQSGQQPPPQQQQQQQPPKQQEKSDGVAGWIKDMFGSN

[7] = read-out: IC50 (μg/ml) / K. pneumoniae SR22291 / Cefiderocol (converted)
[8] = read-out: IC50 (μg/ml) / E. coli NIHJ JC-2 / Cefiderocol (converted)
[9] = read-out: IC50 (μg/ml) / K. pneumoniae SR22291 / Ceftazidime (converted)
[10] = read-out: IC50 (μg/ml) / E. coli NIHJ JC-2 / Ceftazidime

T5 sequence (P02918 whole entry): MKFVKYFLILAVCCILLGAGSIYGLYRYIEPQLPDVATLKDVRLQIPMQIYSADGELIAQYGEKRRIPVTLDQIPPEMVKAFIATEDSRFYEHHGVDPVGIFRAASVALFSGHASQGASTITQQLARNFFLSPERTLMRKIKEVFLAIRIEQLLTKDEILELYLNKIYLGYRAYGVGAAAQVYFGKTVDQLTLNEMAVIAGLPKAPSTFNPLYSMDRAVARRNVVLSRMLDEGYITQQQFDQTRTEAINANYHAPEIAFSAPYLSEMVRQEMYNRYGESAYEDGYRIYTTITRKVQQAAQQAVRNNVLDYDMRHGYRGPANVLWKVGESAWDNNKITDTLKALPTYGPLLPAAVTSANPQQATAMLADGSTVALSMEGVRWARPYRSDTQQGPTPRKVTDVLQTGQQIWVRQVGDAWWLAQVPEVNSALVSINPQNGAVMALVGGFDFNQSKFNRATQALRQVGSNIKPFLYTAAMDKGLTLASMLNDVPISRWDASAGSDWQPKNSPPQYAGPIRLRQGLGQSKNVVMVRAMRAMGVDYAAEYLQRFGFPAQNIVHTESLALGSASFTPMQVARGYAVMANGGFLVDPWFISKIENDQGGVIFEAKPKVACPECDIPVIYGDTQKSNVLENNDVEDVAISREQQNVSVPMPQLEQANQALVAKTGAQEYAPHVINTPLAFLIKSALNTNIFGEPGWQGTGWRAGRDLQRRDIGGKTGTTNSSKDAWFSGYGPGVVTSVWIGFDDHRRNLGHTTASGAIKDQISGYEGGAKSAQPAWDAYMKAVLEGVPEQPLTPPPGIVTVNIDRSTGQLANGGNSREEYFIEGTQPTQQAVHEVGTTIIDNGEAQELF
T4 sequence (P02919 whole entry): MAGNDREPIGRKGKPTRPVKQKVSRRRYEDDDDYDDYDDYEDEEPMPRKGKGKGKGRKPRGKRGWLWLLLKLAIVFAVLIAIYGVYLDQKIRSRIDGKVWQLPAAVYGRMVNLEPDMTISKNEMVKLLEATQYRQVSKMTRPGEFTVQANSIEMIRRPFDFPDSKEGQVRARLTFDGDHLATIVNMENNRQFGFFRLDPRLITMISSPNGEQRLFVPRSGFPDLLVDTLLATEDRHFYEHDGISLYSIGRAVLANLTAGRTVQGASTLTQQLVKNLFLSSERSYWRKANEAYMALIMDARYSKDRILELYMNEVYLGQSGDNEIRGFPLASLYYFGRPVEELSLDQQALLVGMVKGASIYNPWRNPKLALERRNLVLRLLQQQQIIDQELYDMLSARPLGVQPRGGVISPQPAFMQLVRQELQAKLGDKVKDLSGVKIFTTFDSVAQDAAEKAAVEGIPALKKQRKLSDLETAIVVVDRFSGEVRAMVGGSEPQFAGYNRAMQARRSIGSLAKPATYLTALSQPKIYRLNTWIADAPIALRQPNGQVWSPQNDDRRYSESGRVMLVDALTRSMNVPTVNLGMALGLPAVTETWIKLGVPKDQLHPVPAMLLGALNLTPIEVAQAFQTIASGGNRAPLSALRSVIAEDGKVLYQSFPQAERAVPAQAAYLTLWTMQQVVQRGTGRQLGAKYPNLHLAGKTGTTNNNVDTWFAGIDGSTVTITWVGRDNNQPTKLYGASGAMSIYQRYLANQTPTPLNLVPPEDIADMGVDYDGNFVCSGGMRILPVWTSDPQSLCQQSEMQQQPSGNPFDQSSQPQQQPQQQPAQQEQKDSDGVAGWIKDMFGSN

Molecule `CC(C)(O/N=C(\C(=O)N[C@@H]1C(=O)N2C(C(=O)[O-])=C(C[N+]3(CCNC(=O)c4ccc(O)c(O)c4Cl)CCCC3)CS[C@H]12)c1csc(N)n1)C(=O)O` [cefiderocol] has an IC50 [1, 7] of 0.372 µM, an IC50 [2, 7] of 0.0824 µM and an IC50 ([3]; read-out: IC50 (μg/ml) / A. baumannii ATCC 17978 ^a / Cefiderocol (converted)) of 3.07 µM. It also gave an IC50 [4, 8] of 4.48 µM, an IC50 [5, 8] of 5.05 µM and an IC50 [6, 7] of 4.65 µM.
`CC(C)(O/N=C(\C(=O)N[C@@H]1C(=O)N2C(C(=O)[O-])=C(C[n+]3ccccc3)CS[C@H]12)c1csc(N)n1)C(=O)O` [ceftazidime] gave an IC50 [1, 9] of 6.59 µM, an IC50 [2, 9] of 0.402 µM and an IC50 ([3]; read-out: IC50 (μg/ml) / A. baumannii ATCC 17978 ^a / Ceftazidime) of over 117 µM. For the same molecule, the IC50 [4, 10] was over 7.32 µM, the IC50 [5, 10] was over 7.32 µM and the IC50 [6, 9] was 4.21 µM.
